Data set [1] is described as follows: in vivo. Particulars: rat, po. The procedure:
Similarly, 10-μg of LN suspension was administered orally. Blood samples were collected at specific time points and plasma LN concentrations were estimated. The drug plasma concentration at each sampling time points were plotted against time in hr.
Various pharmacokinetic parameters (Cmax, Tmax and t1/2) were determined from drug plasma concentration-time curve. The area under the plasma level curve was calculated by the trapezoidal rule.

Data set [2] can be described thus: in vivo. Particulars: rat, po, 10 ug. The procedure:
Size of the drug particles and liposomes in all the formulations was kept between 10-15 μm, as the particles with 10-20 μm are all deposited in the nasal cavity, whereas particles smaller than 1 μm pass with inspired air into the lungs.
Suspension containing 10-μg levonorgestrel was administered intranasally in three different group of rats.
Blood samples were collected at specific time points and plasma levonorgestrel concentrations were estimated. The drug plasma concentration at each sampling time point were plotted against time in hr.
The mucociliary clearance under normal conditions rapidly clears the applied material since there is a little time of contact between the drug and the mucosa. […] CS acts by opening tight junction between epithelial cells.

In data set [1], `C#C[C@]1(O)CC[C@H]2[C@@H]3CCC4=CC(=O)CC[C@@H]4[C@H]3CC[C@@]21CC` [levonorgestrel] had a Cmax of 14.4 ng/mL and a half-life of 1010 min. In data set [2], the peak level (Cmax) was 14.4 ng/mL, the Tmax was found to be 2.1 h and the half-life was 1010 min.

For orientation: Cmax means the peak of the concentration-time curve. What is called half-life is the time needed for the level to fall by half in the phase considered. Usually Tmax stands for the time from dosing to the highest level.

Values taken from patent US20120263784A1, “EMERGENCY CONTRACEPTIVE” (LYKA LABS LIMITED, priority 2009, published 2012).
